The values below come from PubChem BioAssay (NCI).

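Step 1: Grow cells in 96-well plates. Step 2: Expose to compound for 48 hours at 5 concentrations. Step 3: Interpolate endpoints linearly; if unreached, use highest concentration. GI50: concentration for 50% inhibition of growth. Definition used: TGI = concentration required for complete inhibition of growth.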

What all share (assay): NCI anticancer screen, dose series, 48 h
The test system of test [1] is EKVX NSCLC.
In test [2] the test system is NCI-H23 lung.
Test [3] concerns TK-10 renal.
Test [4] deals with A549 NSCLC.
In test [5] the test system is KM12 colon.
Test [6] deals with SK-MEL-28 melanoma.
Test [7] relates to NCI-H226 lung.
For test [8], the system named is UACC-62 melanoma.
The test system of test [9] is SK-OV-3 ovarian.
Test [10] deals with SR leukemia.

Consider `CCOC(=O)N1C2C=C(C)C(C3C(C)C(=O)N31)N(C(=O)c1ccccc1)O2` (stereo not given), for which the TGI in [1], in test [2], in [3], in test [4], in [5] and in test [6] was > 100 µM throughout. Also, the TGI in test [7], in [8], in test [9] and in test [10] was > 100 µM throughout.
For `Nc1nc(OCc2ccccc2)nc2[nH]ncc12`, the GI50 in [1] is 38.6 µM; in test [2] it was 15.7 µM; in [3], 1.39 µM; in test [4] it was 27.7 µM; in test [5], 16.2 µM; in test [6], 17 µM. The GI50 in test [7] is 14.8 µM; in test [8], 14.4 µM; in [9], 18.6 µM; in test [10] it was 5.59 µM. For the same molecule, the TGI in test [1] is > 100 µM; in [2], 32.7 µM; in test [3], 14.2 µM; in [4] it was > 100 µM; in test [5] it was 34.5 µM; in test [6], 35.2 µM. For the same molecule, the TGI in test [7] came out at 32.6 µM; in test [8], 32.1 µM; in test [9], 49.8 µM; in [10], 30.5 µM.
Regarding `CSc1nc(-c2ccccc2)c2c(n1)-c1ccccc1CC2`, the TGI in [1], in test [2], in test [3], in test [4], in test [5] and in test [6] was > 100 µM each time. The TGI in test [7], in test [8], in test [9] and in test [10] was > 100 µM throughout.
Take `N/N=C(\Cc1ccccc1)NN=C(N)N`: the TGI in test [1], in test [2], in test [3], in test [4], in [5] and in [6] was > 100 µM each time. Besides, the TGI in [7], in test [8], in [9] and in test [10] was > 100 µM each time.
With `O=C1c2ccccc2C(=O)C1C(c1ccc([N+](=O)[O-])cc1)C1C(=O)c2ccccc2C1=O`, the TGI in test [1] is > 100 µM; in test [2], > 100 µM; in [3] it was > 100 µM; in test [4], > 100 µM; in test [5] it was > 100 µM; in test [6], 93.6 µM. Further, the TGI in test [7], in test [8], in test [9] and in test [10] was > 100 µM in each case.
Turning to `C=C(C)CCC(C)N1CCC(N2CCC(C(=O)NCCc3ccccc3)CC2)CC1` (stereo not given), the GI50 in test [1] is 9.27 µM; in test [2], 31.3 µM; in [3], 18.5 µM; in test [4], 32.2 µM; in [5], 54.6 µM; in test [6] it was 13.2 µM. Moreover, the GI50 is 96.6 µM in [7], 13.7 µM in test [8], 21.2 µM in [9] and 12.3 µM in [10]. Moreover, the TGI in test [1] is > 100 µM; in [2], > 100 µM; in test [3], 69.3 µM; in test [4], > 100 µM; in test [5], > 100 µM; in test [6] it was 27.5 µM. For the same molecule, the TGI in [7] was > 100 µM; in [8], 28.8 µM; in [9], 77.3 µM; in test [10] it was 82.1 µM.
For `CCCCC[C@H]1C/C=C2/C(=O)C(Cl)=C[C@@H]2C/C=C\CCCC(=O)O[C@@H](CCCCC)C/C=C2/C(=O)C(Cl)=C[C@@H]2C/C=C\CCCC(=O)O1`, the GI50 in test [1] is 0.543 µM; in test [2], 0.34 µM; in test [3] it was 0.508 µM; in test [4], 0.426 µM; in test [5], 0.388 µM; in test [6], 0.407 µM. For the same molecule, the GI50 was 0.38 µM in test [7], 0.297 µM in [8], 0.966 µM in test [9] and 0.159 µM in test [10]. For the same molecule, the TGI in test [1] worked out at 1.76 µM; in test [2], 0.838 µM; in test [3], 1.6 µM; in test [4], 1.15 µM; in [5], 0.92 µM; in [6] it was 1.01 µM. Besides, the TGI in test [7] was determined as 0.86 µM; in [8] it was 0.62 µM; in test [9] it was 4.18 µM; in test [10] it was 1.35 µM.
As to `Fc1ccc(Nc2nccc(-c3c(-c4ccc(C(F)(F)F)cc4)nn4ncccc34)n2)cc1F`, the GI50 in [1], in test [2], in [3], in [4], in [5] and in [6] was > 25 µM in each case. The GI50 in test [7], in [8], in test [9] and in test [10] was > 25 µM in each case. Moreover, the TGI in [1], in [2], in test [3], in test [4], in test [5] and in test [6] was > 25 µM throughout. In addition, the TGI in test [7], in [8], in test [9] and in test [10] was > 25 µM throughout.
Take `COC(=O)[C@]1(C)CCC[C@@]2(C)C1CCC1=C[C@@]3(C(C)C)CC[C@]12OO3` (stereo not given in full): the TGI is > 100 µM in [1]; > 100 µM in test [2]; > 100 µM in [3]; > 100 µM in test [4]; 66.5 µM in test [5]; 51.2 µM in test [7]. The TGI in test [8] is 72.3 µM; in test [9] it was > 100 µM; in test [10], 40.7 µM.
On to `COc1ccc2c(c1)nc(N)c1c3cccnc3cn21`, for which the GI50 is 2.91 µM in test [1]; 0.345 µM in [2]; 0.252 µM in test [3]; 0.0565 µM in test [4]; 0.0473 µM in test [5]; 0.737 µM in [7]. The GI50 in [8] is 0.0541 µM; in test [9], 0.0508 µM; in [10], 0.0339 µM. Moreover, the TGI in [1] was > 100 µM; in [2], 50 µM; in test [3], 19.9 µM; in test [4], 16.6 µM; in test [5] it was > 41.2 µM; in test [7], 27 µM. Further, the TGI was 22.1 µM in test [8], > 79.3 µM in [9] and 22.4 µM in test [10].
As to `CC(=O)Oc1ccccc1C(=O)C1c2cccc(O)c2C(=O)c2c(O)cccc21`, the TGI is 6.15 µM in test [1]; 4.33 µM in [2]; 15.4 µM in test [3]; 2.86 µM in test [4]; 1.59 µM in test [5]; 7.14 µM in [6]. Moreover, the TGI in test [7] was found to be 3.7 µM; in test [8], 2.23 µM; in [9], 1.68 µM; in test [10] it was 0.967 µM.
In the case of `COC(=O)C(Cc1nc2ccc(Cl)cc2[nH]c1=O)C(=O)C(=O)Nc1ccccc1[N+](=O)[O-]` (stereo not given), the TGI in test [1], in test [2], in test [3], in test [4], in test [5] and in test [6] was > 100 µM in each case. In addition, the TGI in [7], in test [8], in [9] and in [10] was > 100 µM throughout.
For `Oc1cc(Cl)ccc1Oc1ccc(Cl)cc1Cl`, the GI50 in test [1] was 3.04 µM; in test [2], 2.07 µM; in [3] it was 3.47 µM; in [4], 2.6 µM; in test [5], 3.6 µM; in [6], 3.09 µM. Moreover, the GI50 was 2.32 µM in test [7], 2.16 µM in test [8], 2.97 µM in test [9] and 3.46 µM in test [10]. Besides, the TGI in [1] was 11.9 µM; in test [2], 5.5 µM; in [3] it was 9.59 µM; in [4], 8.12 µM; in [5], 12.7 µM; in test [6] it was 10.4 µM. Moreover, the TGI in test [7] worked out at 6.82 µM; in test [8] it was 5 µM; in test [9], 7.86 µM; in [10] it was 10.9 µM.
As to `FC(F)(F)C12C34C=CC5(CCC6(C=CC1(CC3)O6)C52C(F)(F)F)O4` (stereo not given), the TGI in [1], in [2], in [3], in test [4], in test [5] and in [6] was > 100 µM throughout. For the same molecule, the TGI in [7], in test [9] and in [10] was > 100 µM each time.
For the molecule `O=C(O)c1c[nH]cc1C(=O)O`, the TGI in [1], in [2], in test [3], in [4], in [5] and in test [7] was > 100 µM throughout. Besides, the TGI in test [8], in [9] and in [10] was > 100 µM in each case.
For `O=C(Nc1cc(Cl)c(Cl)cc1Cl)C(=O)C(C(=O)c1ccc(Cl)c(Cl)c1)C1OC(=O)c2ccccc21` (stereo not given), the TGI was 58 µM in test [1]; 52 µM in test [3]; > 100 µM in test [4]; 33.6 µM in test [5]; 22.7 µM in test [7]; 33.5 µM in [8]. The TGI in test [9] and in [10] was > 100 µM in each case.
Turning to `S=c1ssc(Sc2ccccn2)c1Cl`, the GI50 in test [1] was 12.5 µM; in test [2] it was 17.2 µM; in test [3] it was 2.11 µM; in test [4] it was 21 µM; in test [5], 15.5 µM; in test [7], 23 µM. In addition, the figures for the GI50 in test [8], in test [9] and in [10] were 15.3 µM, 23.7 µM and 1.7 µM, respectively. Besides, the TGI was found to be 30.3 µM in test [1]; 62.9 µM in test [2]; 8.57 µM in [3]; 42.7 µM in test [4]; 28.8 µM in test [5]; 58.8 µM in test [7]. Besides, the TGI in [8] turned out to be 28.6 µM; in test [9] it was 47.7 µM; in test [10], 4.64 µM.
Take `Cc1ccc2c(c1)ncn2-c1ncnc2c1CC(C)c1ccccc1N2C` (stereo not given): the GI50 is 0.154 µM in test [1]; 0.428 µM in test [2]; 11.6 µM in [3]; 0.248 µM in [4]; 0.106 µM in [5]; 1.84 µM in test [6]. Further, the values for the GI50 in test [7], in test [9] and in test [10] were 1.21 µM, 0.139 µM and 0.0362 µM, respectively. Moreover, the TGI stood at 18 µM in test [1]; 19.4 µM in [2]; 24.3 µM in [3]; 17.5 µM in [4]; 14.6 µM in test [5]; 15.6 µM in [6]. The TGI in test [7] is 18.7 µM; in [9], 17.7 µM; in test [10] it was 1.98 µM.
As to `Cn1cc(-c2ccc(CNc3cc(-c4cnc5cc(OCCCN6CCCC6)ccn45)ncn3)cc2)cn1`, the GI50 was 3.01 µM in [1]; 23.7 µM in test [3]; 1.73 µM in [4]; 1.86 µM in [5]; 1.65 µM in test [6]; 2.03 µM in test [7]. Besides, the figures for the GI50 in test [8], in test [9] and in test [10] were 13.2 µM, 23 µM and 2.17 µM, respectively. In addition, the TGI in test [1] amounted to 9.59 µM; in test [3], 39.1 µM; in test [4] it was 3.49 µM; in [5], 3.68 µM; in test [6] it was 3.17 µM; in test [7] it was 4.81 µM. Besides, the TGI in test [8] stood at 29.2 µM; in [9], 43.3 µM; in test [10], 7.12 µM.
In the case of `O=C(Cc1ccccc1)N/N=C(\C1=Nc2ccc([N+](=O)[O-])cc2NC1O)C(O)c1ccc([N+](=O)[O-])cc1` (stereo not given), the TGI in test [1], in test [2], in [3], in [4], in [7] and in test [8] was > 100 µM each time. The TGI in test [9] and in test [10] was > 100 µM each time.
